Assay results taken from patent US20220348565A1, “PHARMACEUTICAL COMPOUNDS” (SENTINEL ONCOLOGY LIMITED, priority 2019, published 2022).
Like-named read-outs stand apart in the source and are kept apart here.

Columns and labels:
[1] = biological target: T1, panel of ninety-seven kinases (Homo sapiens, UniProt P50613); experiment: DiscoverX KinomeScreen kinase selectivity competition binding assay; conditions: CDK7; read-out: % Ctrl @ 3 μM
T1 construct: purchased DiscoverX; host or cells: T7 phage in E. coli (BL21-derived) for most kinases; HEK-293 for the rest
Summary of the method: (§1)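 Site-directed competition binding: kinase (T7 phage-tagged or HEK-293-expressed, DNA-tagged) captured on immobilized biotinylated ligand beads, with compound at 3000 nM. Bound kinase eluted and quantified by qPCR. Reported as % Ctrl, with DMSO as 100% and control compound as 0%.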

[2] = biological target: T2, panel of ninety-seven kinases (Homo sapiens, UniProt Q02763); experiment: as above; conditions: TEK; read-out: % Ctrl @ 3 μM
T2 construct: purchased DiscoverX; host or cells: T7 phage in E. coli (BL21-derived) for most kinases; HEK-293 for the rest
Summary of the method: as §1

[3] = biological target: T3, panel of ninety-seven kinases (Homo sapiens, UniProt P09619); experiment: as above; conditions: PDGFRB; read-out: % Ctrl @ 3 μM
T3 construct: purchased DiscoverX; host or cells: T7 phage in E. coli (BL21-derived) for most kinases; HEK-293 for the rest
Summary of the method: as §1

[4] = biological target: T4, panel of ninety-seven kinases (Homo sapiens, UniProt Q00536); experiment: as above; conditions: CDK16; read-out: % Ctrl @ 3 μM
T4 construct: purchased DiscoverX; host or cells: T7 phage in E. coli (BL21-derived) for most kinases; HEK-293 for the rest
Summary of the method: as §1

[5] = biological target: T5, panel of ninety-seven kinases (Homo sapiens, UniProt P27448); experiment: as above; conditions: MARK3; read-out: % Ctrl @ 3 μM
T5 construct: purchased DiscoverX; host or cells: T7 phage in E. coli (BL21-derived) for most kinases; HEK-293 for the rest
Summary of the method: as §1

[6] = biological target: T6, panel of ninety-seven kinases (Homo sapiens, UniProt Q9BXA7); experiment: as above; conditions: TSSK1B; read-out: % Ctrl @ 3 μM
T6 construct: purchased DiscoverX; host or cells: T7 phage in E. coli (BL21-derived) for most kinases; HEK-293 for the rest
Summary of the method: as §1

[7] = Mouse PK, plasma after i.v. and p.o. dosing (oral bioavailability); assay type: in vivo, Male CD-1 mice; conditions: for half-life: read-out: T ½ (converted)
Experimental: Atropisomers A-2 and A-3 were evaluated in an in vivo mouse model to determine brain and plasma concentrations following p.o. and i.v. dosing.
Male CD-1 mice were dosed with the compounds of Examples A-2 and A-3, either by i.v. administration (2 mg/kg) or by p.o. administration (10 mg/kg). Eight samples were taken for analysis in the i.v. leg at 2, 10, 30 min, 1, 2, 4, 8, and 24 (for i.v) and 9 samples in the p.o. leg at 15, 30 min, 1, 2, 4, 8, 24, 48 and 72 hrs.
The compounds of Examples A-2 and A-3 were both formulated in 10% DMSO/90% hydroxypropyl-beta-cyclodextrin (20% w/v in water) for i.v. and p.o. dosing. N =3 mice per time point.
Post dosing, terminal blood samples were taken from individual animals and delivered into labelled polypropylene tubes containing anticoagulant (EDTA). The samples were held on wet ice for a maximum of 30 min while sampling of all the animals in the cohort was completed. The blood samples were centrifuged for plasma (4° C., 21100 g for 5 min) and the resulting plasma transferred into corresponding labelled tubes. Terminal brains from each PO dosed animal were excised, rinsed with saline and placed into pre-weighed labelled polypropylene tubes and the samples re-weighed prior to storage.
Quantitative bioanalysis was carried out using liquid chromatography—mass spectroscopy was performed. The results are shown in Tables 14, 15 and 16 below and in FIGS. 12 to 15.

[8] = Gravimetric solubility in water; assay type: physicochemical; conditions: thermodynamic from solid; gravimetric, water
Experimental: The solubility in water of the salts was measured using a gravimetric solubility protocol.
(§2) 1 ml of water was charged into crystallisation tubes. The solid was weighed into a tared glass vial, added in portions to the solutions and the vial weighed after each addition until a hazy solution was observed. The amount in mg was then calculated to give the solubility in mg/ml.
as §2, with “The solubility in water of the salts was measured using a gravimetric solubility protocol. Thus, 1” for “1”, “mg/mL.” for “mg/ml.”

[9] = mouse, 2 mg/kg, 2 mq/Kq IV, male CD-1 mice, plasma
[10] = mouse, 10 mg/kg, 10 mq/Kq PO, male CD-1 mice, plasma

T2 sequence (Q02763 23-1124): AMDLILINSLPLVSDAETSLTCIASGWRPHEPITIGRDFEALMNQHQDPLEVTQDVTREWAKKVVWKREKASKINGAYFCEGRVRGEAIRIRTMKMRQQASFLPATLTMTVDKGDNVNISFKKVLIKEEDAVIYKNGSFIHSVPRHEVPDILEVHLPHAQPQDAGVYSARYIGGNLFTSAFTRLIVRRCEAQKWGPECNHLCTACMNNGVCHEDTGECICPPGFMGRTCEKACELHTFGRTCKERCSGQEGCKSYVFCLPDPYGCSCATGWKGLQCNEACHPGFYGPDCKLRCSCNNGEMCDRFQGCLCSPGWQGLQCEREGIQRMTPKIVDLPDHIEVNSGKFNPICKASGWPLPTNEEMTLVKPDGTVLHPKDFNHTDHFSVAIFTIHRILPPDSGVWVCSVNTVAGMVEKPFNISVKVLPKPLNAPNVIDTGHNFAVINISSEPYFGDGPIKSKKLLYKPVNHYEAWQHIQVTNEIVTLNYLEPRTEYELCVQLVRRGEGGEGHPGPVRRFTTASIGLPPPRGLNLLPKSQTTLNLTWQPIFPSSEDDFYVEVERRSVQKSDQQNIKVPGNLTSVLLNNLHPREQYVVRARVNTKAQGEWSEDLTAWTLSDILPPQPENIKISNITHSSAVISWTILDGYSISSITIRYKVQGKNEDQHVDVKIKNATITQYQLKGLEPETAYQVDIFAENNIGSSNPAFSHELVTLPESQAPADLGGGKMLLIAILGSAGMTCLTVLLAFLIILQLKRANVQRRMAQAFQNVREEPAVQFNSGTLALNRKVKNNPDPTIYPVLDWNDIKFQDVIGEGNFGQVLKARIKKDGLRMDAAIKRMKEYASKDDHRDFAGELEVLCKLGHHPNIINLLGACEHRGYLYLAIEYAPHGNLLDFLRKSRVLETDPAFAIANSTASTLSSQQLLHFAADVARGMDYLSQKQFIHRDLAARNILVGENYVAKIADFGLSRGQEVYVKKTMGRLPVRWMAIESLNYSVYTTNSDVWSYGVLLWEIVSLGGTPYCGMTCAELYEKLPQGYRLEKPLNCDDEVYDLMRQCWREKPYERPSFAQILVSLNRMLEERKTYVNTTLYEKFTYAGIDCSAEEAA
T6 sequence (Q9BXA7 whole entry): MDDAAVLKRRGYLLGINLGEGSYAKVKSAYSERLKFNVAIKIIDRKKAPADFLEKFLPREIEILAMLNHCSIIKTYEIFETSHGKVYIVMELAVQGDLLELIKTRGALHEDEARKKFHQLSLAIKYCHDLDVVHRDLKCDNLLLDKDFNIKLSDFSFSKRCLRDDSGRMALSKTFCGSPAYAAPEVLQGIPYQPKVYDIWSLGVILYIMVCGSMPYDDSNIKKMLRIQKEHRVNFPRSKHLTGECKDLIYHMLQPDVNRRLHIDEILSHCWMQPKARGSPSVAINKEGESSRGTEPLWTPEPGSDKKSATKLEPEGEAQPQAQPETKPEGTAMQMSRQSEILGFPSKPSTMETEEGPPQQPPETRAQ
T1 sequence (P50613 whole entry): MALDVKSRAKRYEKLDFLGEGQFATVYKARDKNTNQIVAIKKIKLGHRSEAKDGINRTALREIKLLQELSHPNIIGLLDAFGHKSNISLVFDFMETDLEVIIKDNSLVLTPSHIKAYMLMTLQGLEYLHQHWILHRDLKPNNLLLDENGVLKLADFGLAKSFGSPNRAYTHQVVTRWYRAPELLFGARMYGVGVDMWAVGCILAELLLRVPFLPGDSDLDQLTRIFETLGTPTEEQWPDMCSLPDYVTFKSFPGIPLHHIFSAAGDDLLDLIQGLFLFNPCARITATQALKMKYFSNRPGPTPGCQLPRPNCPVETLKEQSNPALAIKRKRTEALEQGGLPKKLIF
T3 sequence (P09619 33-1106): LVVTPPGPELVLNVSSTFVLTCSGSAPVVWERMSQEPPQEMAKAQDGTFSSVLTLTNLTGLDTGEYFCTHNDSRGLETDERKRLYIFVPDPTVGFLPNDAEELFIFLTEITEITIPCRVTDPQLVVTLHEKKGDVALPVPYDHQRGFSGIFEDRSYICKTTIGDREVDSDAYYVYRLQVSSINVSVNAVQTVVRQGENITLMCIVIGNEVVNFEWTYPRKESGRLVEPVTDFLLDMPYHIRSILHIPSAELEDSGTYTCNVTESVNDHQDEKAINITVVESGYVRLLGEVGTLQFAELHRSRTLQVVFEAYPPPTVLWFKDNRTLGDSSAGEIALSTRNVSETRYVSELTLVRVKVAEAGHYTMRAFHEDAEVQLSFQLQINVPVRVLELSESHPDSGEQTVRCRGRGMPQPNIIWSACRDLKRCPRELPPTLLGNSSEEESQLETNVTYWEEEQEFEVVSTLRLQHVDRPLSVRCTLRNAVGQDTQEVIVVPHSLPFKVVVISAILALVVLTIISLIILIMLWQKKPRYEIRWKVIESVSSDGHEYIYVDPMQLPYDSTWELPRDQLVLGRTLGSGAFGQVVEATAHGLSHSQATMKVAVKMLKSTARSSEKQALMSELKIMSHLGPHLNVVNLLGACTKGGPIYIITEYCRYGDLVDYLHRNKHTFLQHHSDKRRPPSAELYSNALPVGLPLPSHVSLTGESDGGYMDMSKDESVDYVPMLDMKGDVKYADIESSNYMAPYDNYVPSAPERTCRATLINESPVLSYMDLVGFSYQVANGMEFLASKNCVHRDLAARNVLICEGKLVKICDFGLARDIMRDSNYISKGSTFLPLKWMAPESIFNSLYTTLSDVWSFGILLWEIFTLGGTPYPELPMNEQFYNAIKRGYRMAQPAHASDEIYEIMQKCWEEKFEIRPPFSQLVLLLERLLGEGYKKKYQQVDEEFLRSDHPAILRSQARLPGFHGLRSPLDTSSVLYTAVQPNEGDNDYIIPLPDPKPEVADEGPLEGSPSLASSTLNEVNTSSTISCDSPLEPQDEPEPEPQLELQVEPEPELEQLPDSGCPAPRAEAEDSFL
T5 sequence (P27448 whole entry): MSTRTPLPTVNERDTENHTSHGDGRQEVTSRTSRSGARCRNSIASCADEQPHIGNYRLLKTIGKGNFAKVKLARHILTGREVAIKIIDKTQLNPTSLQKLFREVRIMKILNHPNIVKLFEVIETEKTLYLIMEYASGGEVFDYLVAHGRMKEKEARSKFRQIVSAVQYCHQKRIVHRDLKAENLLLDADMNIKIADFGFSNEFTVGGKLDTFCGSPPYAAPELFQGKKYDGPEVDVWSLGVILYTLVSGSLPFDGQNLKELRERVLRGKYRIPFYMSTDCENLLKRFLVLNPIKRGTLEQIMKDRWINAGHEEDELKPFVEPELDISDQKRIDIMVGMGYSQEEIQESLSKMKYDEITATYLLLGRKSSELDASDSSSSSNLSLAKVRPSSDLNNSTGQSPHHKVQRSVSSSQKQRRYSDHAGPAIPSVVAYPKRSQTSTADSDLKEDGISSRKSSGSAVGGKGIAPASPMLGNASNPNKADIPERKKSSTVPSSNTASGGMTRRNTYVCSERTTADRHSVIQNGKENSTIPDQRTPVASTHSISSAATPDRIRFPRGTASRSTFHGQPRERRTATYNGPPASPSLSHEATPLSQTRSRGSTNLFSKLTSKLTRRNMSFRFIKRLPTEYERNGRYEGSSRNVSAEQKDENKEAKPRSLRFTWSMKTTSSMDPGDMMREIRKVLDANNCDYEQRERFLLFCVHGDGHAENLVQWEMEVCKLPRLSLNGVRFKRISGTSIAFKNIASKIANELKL
T4 sequence (Q00536 whole entry): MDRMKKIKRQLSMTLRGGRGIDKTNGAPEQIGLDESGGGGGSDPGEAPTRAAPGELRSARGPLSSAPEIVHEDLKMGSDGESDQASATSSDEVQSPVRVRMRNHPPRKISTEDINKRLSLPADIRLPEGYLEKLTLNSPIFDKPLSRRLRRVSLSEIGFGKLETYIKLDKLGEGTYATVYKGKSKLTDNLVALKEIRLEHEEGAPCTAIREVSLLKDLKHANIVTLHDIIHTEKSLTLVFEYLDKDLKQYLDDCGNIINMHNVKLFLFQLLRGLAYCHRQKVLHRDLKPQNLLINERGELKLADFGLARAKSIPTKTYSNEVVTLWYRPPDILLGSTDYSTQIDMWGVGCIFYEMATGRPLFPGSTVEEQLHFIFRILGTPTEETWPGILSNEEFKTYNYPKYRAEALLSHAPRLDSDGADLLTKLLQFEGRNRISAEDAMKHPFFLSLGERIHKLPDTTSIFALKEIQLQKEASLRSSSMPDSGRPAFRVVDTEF

- percent of control kinase binding to immobilized ligand at 3 µM [1]: 100%
- percent of control kinase binding to immobilized ligand at 3 µM [2]: 99%
- percent of control kinase binding to immobilized ligand at 3 µM [3]: 100%
- percent of control kinase binding to immobilized ligand at 3 µM [4]: 100%
- percent of control kinase binding to immobilized ligand at 3 µM [5]: 100%
- percent of control kinase binding to immobilized ligand at 3 µM [6]: 100%
- CI ([7]; 2 mq/Kq IV, male CD-1 mice, plasma): 20.5 mL/min/kg
- F ([7]; 10 mq/Kq PO vs 2 mq/Kq IV, male CD-1 mice): 76%
- AUC(0-inf) [7, 9]: 1620 ng·h/mL
- Cmax [7, 9]: 278 ng/mL
- half-life [7, 9]: 9 h
- AUC(0-inf) [7, 10]: 6130 ng·h/mL
- Cmax [7, 10]: 265 ng/mL
- half-life [7, 10]: 10.7 h
- AUC(0-t) ([7]; mouse, po, plasma, p.o. 10 mg/kg, male CD-1 mice, read-out: AUClast plasma): 6130 ng·h/mL
- oral absorption / oral bioavailability (in words) ([7]; oral dosing in mice): highly absorbed
- solubility [8]: < 5000 µg/mL
Compound: CN(C)CCNC(=O)c1ccc(-c2ccc(-c3ccc(Cl)cc3)n2-c2ccccc2C(F)(F)F)cc1 (single isomer, unassigned) [Atropisomer A-2, 4-[5-(4-chlorophenyl)-1-[2-(trifluoromethyl)phenyl]pyrrol-2-yl]-N-[2-(dimethylamino)ethyl]benzamide]
